Results published in article PMC10447463, “Data-mining unveils structure–property–activity correlation of viral infectivity enhancing self-assembling peptides” (Nature Communications, 2023).
Like-named read-outs stand apart in the source and are kept apart here.

How the values were obtained:
[1] = ref sieste 2021 or Schilling2019, cited from earlier work
Source text: Supplement 41467_2023_40663_MOESM7_ESM.zip/FigS17.csv, table | column: Conversion Rate / % ( from sieste 2021 or Schilling2019)

[2] = Conversion rate (CR) assay with fluorescamine; type: physicochemical
How it was run: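 Spectra: 64 scans, 2 cm^-1, lyophilized PNF (1 mg/mL source). CR = 100 − 100 × filtrate/original fluorescamine signal; triplicate, ± SD.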

[3] = system: TZM-bl cells; type: cell-based; conditions: CellTiter-Glo, mean of n = 3 replicates; for viability 0.26 µM: peptide 0.26 µM; for viability 1.3 µM: peptide 1.3 µM; for viability 6.5 µM: peptide 6.5 µM
How it was run: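 Viability of TZM-bl cells (10,000 seeded) after 3 days with serially diluted peptides, measured by CellTiter-Glo luminescence. Values normalized to 100% metabolic activity; triplicates.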

Substance	Conversion Rate / % ( from sieste 2021 or Schilling2019) ([1]; previously reported peptides only)	Conversion Rate / % [2]	Conversion Rate / % ([2]; fluorescamine assay)	viability 0.26 µM [3]	viability 1.3 µM [3]	viability 6.5 µM [3]	Conversion Rate / % ( from sieste 2021 or Schilling2019) [1]
KIKQIINMWQ [JG2]	86%	94.17%	94.17%	91.29	92.88	83.88	–
MKFKFQF [DF5 / CK16]	–	–	98.72%	101.4	111.3	99.71	75%
